The record followed here is patent US12594276B2, “Inhibitors of human immunodeficiency virus replication” (ViiV Healthcare UK (No.5) Limited, priority 2024, dated 2026).

Where two headings read alike, the source gives them in different places. Where only a bound is given, the exact number is not on record here.

For data set [1], the system named is recombinant NL4-3 virus (nef section replaced with Renilla luciferase gene) in MT-2 cells. Description: HIV cell culture assay (antiviral activity, luciferase readout). The class given is cell-based. Conditions: Renilla, NL43, MT-2 cells infected for 4-5 days with recombinant NL4-3 Renilla luciferase virus. In short, it runs like this:
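Reporter virus is produced in 293T cells and its titer set in MT-2 cells by luciferase activity. MT-2 cells are then infected in the presence of serially diluted compound for 4-5 days. Luciferase is quantified and EC50 fitted to the median effect equation.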

The nature of data set [2]: Compound cytotoxicity, XTT-based colorimetric assay. The class given is cell-based. The conditions noted are these: human. Put shortly: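 Uninfected MT2 cells were treated with compound under the same protocol as the antiviral assay. Viability was read on day 4 with an XTT colorimetric assay, from which CC50 values were derived.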
Where [3] appears, read: uninfected MT2 cells, day 4, XTT, read-out: CC50.

`CCc1cc(C2CCC(F)(F)CC2)nc2nc([C@H](Cc3cc(F)cc(F)c3)NC(=O)Cn3nc(C(F)F)c4c3C[C@H]3C[C@@H]43)n(-c3ccc(Cl)c4c(NS(C)(=O)=O)nn(CCCOC)c34)c(=O)c12` (relative stereo) [Example 643, N-[(1S)-1-[(3P)-3-[4-chloro-3-methanesulfonamido-1-(3-methoxypropyl)-1H-indazol-7-yl]-7-(4,4-difluorocyclohexyl)-5-ethyl-4-oxo-3H,4H-pyrido[2,3-d]pyrimidin-2-yl]-2-(3,5-difluorophenyl)ethyl]-2-[(2R*,4R*)-9-(difluoromethyl)-7,8-diazatricyclo[4.3.0.0^2,^4]nona-1(6),8-dien-7-yl]acetamide]: the EC50 in data set [1] came to 0.017 nM. The CC50 at 4 days in data set [2] (setting [3]) was greater than 50 nM.
As to `Cc1cc(C2CCC(F)(F)CC2)nc2nc([C@H](Cc3cc(F)cc(F)c3)NC(=O)Cn3nc(C(F)F)c4c3C(F)(F)[C@@H]3C[C@H]43)n(-c3ccc(Cl)c4c(NS(C)(=O)=O)nn(CC(=O)N5C[C@H]6C[C@H]6C5)c34)c(=O)c12` (atropisomer, axis not shown; (P)) [Example 409, N-[(1S)-1-[(3P)-3-(1-{2-[(1R,5S)-3-azabicyclo[3.1.0]hexan-3-yl]-2-oxoethyl}-4-chloro-3-methanesulfonamido-1H-indazol-7-yl)-7-(4,4-difluorocyclohexyl)-5-methyl-4-oxo-3H,4H-pyrido[2,3-d]pyrimidin-2-yl]-2-(3,5-difluorophenyl)ethyl]-2-[(2S,4R)-9-(difluoromethyl)-5,5-difluoro-7,8-diazatricyclo[4.3.0.0^2,^4]nona-1(6),8-dien-7-yl]acetamide], the EC50 in data set [1] came out at 0.014 nM. For the same compound, the CC50 at 4 days in data set [2] (setting [3]) was greater than 20 nM.
In the case of `Cc1cc(C2CCC(F)(F)CC2)nc2nc([C@H](Cc3cc(F)cc(F)c3)NC(=O)Cn3nc(C4CC4)c4c3C[C@@H]3C[C@H]43)n(-c3ccc(Cl)c4c(NS(C)(=O)=O)nn(CCN5C[C@@H](F)[C@@H](F)C5)c34)c(=O)c12` (atropisomer, axis not shown; (P)) [Example 281, N-[(1S)-1-[(3P)-3-(4-chloro-1-{2-[(3R,4S)-3,4-difluoropyrrolidin-1-yl]ethyl}-3-methanesulfonamido-1H-indazol-7-yl)-7-(4,4-difluorocyclohexyl)-5-methyl-4-oxo-3H,4H-pyrido[2,3-d]pyrimidin-2-yl]-2-(3,5-difluorophenyl)ethyl]-2-[(2S,4S)-9-cyclopropyl-7,8-diazatricyclo[4.3.0.0^2,^4]nona-1(6),8-dien-7-yl]acetamide], the EC50 in data set [1] is 0.011 nM. In data set [2] (setting [3]), the CC50 at 4 days was greater than 50 nM.
Regarding `Cc1cc(C2(F)CCC(F)(F)CC2)nc2nc([C@H](Cc3cc(F)cc(F)c3)NC(=O)Cn3nc(C(F)F)c4c3C(F)(F)[C@@H]3C[C@H]43)n(-c3ccc(Cl)c4c(NS(C)(=O)=O)nn(CCN5CCOC(C)(C)C5)c34)c(=O)c12` (atropisomer, axis not shown; (P)) [Example 578, N-[(1S)-1-[(3P)-3-{4-chloro-1-[2-(2,2-dimethylmorpholin-4-yl)ethyl]-3-methanesulfonamido-1H-indazol-7-yl}-5-methyl-4-oxo-7-(1,4,4-trifluorocyclohexyl)-3H,4H-pyrido[2,3-d]pyrimidin-2-yl]-2-(3,5-difluorophenyl)ethyl]-2-[(2S,4R)-9-(difluoromethyl)-5,5-difluoro-7,8-diazatricyclo[4.3.0.0^2,^4]nona-1(6),8-dien-7-yl]acetamide], the EC50 in data set [1] came to 0.008 nM. In data set [2] (setting [3]), the CC50 at 4 days was greater than 20 nM.
In the same order, the values of `C[C@@H]1CN(CCn2nc(NS(C)(=O)=O)c3c(Cl)ccc(-n4c([C@H](Cc5cc(F)cc(F)c5)NC(=O)Cn5nc(C(F)F)c6c5C(F)(F)[C@@H]5C[C@H]65)nc5nc(C6CCC(F)(F)CC6)ccc5c4=O)c32)CCO1` (atropisomer, axis not shown; (P)) [Example 360] are 0.01 nM and greater than 50 nM.
For `Cc1cc(C2(C)CCC(F)(F)CC2)nc2nc([C@H](Cc3cc(F)cc(F)c3)NC(=O)Cn3nc(C(F)F)c4c3C(F)(F)[C@@H]3C[C@H]43)n(-c3ccc(Cl)c4c(NS(C)(=O)=O)nn(CCN5C[C@H](F)C[C@H](F)C5)c34)c(=O)c12` (atropisomer, axis not shown; (P)) [Example 473, N-[(1S)-1-[(3P)-3-(4-chloro-1-{2-[(3R,5S)-3,5-difluoropiperidin-1-yl]ethyl}-3-methanesulfonamido-1H-indazol-7-yl)-7-(4,4-difluoro-1-methylcyclohexyl)-5-methyl-4-oxo-3H,4H-pyrido[2,3-d]pyrimidin-2-yl]-2-(3,5-difluorophenyl)ethyl]-2-[(2S,4R)-9-(difluoromethyl)-5,5-difluoro-7,8-diazatricyclo[4.3.0.0^2,^4]nona-1(6),8-dien-7-yl]acetamide], the EC50 in data set [1] turned out to be 0.008 nM. In data set [2] (setting [3]), the CC50 at 4 days is greater than 20 nM.
For the compound `COCCCn1nc(NS(C)(=O)=O)c2c(Cl)ccc(-n3c([C@H](Cc4cc(F)cc(F)c4)NC(=O)Cn4nc(C(F)F)c5c4C(F)(F)[C@@H]4C[C@H]54)nc4nc(C5CCC(F)(F)CC5)cc(NCCN5CCC5)c4c3=O)c21` (atropisomer, axis not shown; (P)) [Example 500, N-[(1S)-1-[(3P)-5-{[2-(azetidin-1-yl)ethyl]amino}-3-[4-chloro-3-methanesulfonamido-1-(3-methoxypropyl)-1H-indazol-7-yl]-7-(4,4-difluorocyclohexyl)-4-oxo-3H,4H-pyrido[2,3-d]pyrimidin-2-yl]-2-(3,5-difluorophenyl)ethyl]-2-[(2S,4R)-9-(difluoromethyl)-5,5-difluoro-7,8-diazatricyclo[4.3.0.0^2,^4]nona-1(6),8-dien-7-yl]acetamide], in data set [1], the EC50 was found to be 0.049 nM. Further, in data set [2] (setting [3]), the CC50 at 4 days was greater than 20 nM.
Turning to `Cc1cc(C2(F)CCC(F)(F)CC2)nc2nc([C@H](Cc3cc(F)cc(F)c3)NC(=O)Cn3nc(C4CC4)c4c3C(F)(F)[C@@H]3C[C@H]43)n(-c3ccc(Cl)c4c(NS(C)(=O)=O)nn(CCN5C[C@H](F)C[C@H](F)C5)c34)c(=O)c12` (atropisomer, axis not shown; (P)) [Example 570, N-[(1S)-1-[(3P)-3-(4-chloro-1-{2-[(3R,5S)-3,5-difluoropiperidin-1-yl]ethyl}-3-methanesulfonamido-1H-indazol-7-yl)-5-methyl-4-oxo-7-(1,4,4-trifluorocyclohexyl)-3H,4H-pyrido[2,3-d]pyrimidin-2-yl]-2-(3,5-difluorophenyl)ethyl]-2-[(2S,4R)-9-cyclopropyl-5,5-difluoro-7,8-diazatricyclo[4.3.0.0^2,^4]nona-1(6),8-dien-7-yl]acetamide], the EC50 in data set [1] was 0.029 nM. Moreover, the CC50 at 4 days in data set [2] (setting [3]) was greater than 20 nM.
Turning to `Cc1cc(C2(F)CCC(F)(F)CC2)nc2nc([C@H](Cc3cc(F)cc(F)c3)NC(=O)Cn3nc(C4CC4)c4c3C[C@@H]3C[C@H]43)n(-c3ccc(Cl)c4c(NS(C)(=O)=O)nn(CCN5CCOCC5(C)C)c34)c(=O)c12` (atropisomer, axis not shown; (P)) [Example 586, N-[(1S)-1-[(3P)-3-{4-chloro-1-[2-(3,3-dimethylmorpholin-4-yl)ethyl]-3-methanesulfonamido-1H-indazol-7-yl}-5-methyl-4-oxo-7-(1,4,4-trifluorocyclohexyl)-3H,4H-pyrido[2,3-d]pyrimidin-2-yl]-2-(3,5-difluorophenyl)ethyl]-2-[(2S,4S)-9-cyclopropyl-7,8-diazatricyclo[4.3.0.0^2,^4]nona-1(6),8-dien-7-yl]acetamide], in data set [1], the EC50 came to 0.016 nM. In addition, the CC50 at 4 days in data set [2] (setting [3]) is greater than 20 nM.
On to `Cc1cc(C2(F)CCC(F)(F)CC2)nc2nc([C@H](Cc3cc(F)cc(F)c3)NC(=O)Cn3nc(C(F)F)c4c3C(F)(F)[C@@H]3C[C@H]43)n(-c3ccc(Cl)c4c(NS(C)(=O)=O)nn(CCN5CC6CC(C5)O6)c34)c(=O)c12` [Example 588, N-[(1S)-1-[(3P)-3-[4-chloro-3-methanesulfonamido-1-(2-{6-oxa-3-azabicyclo[3.1.1]heptan-3-yl}ethyl)-1H-indazol-7-yl]-5-methyl-4-oxo-7-(1,4,4-trifluorocyclohexyl)-3H,4H-pyrido[2,3-d]pyrimidin-2-yl]-2-(3,5-difluorophenyl)ethyl]-2-[(2S,4R)-9-(difluoromethyl)-5,5-difluoro-7,8-diazatricyclo[4.3.0.0^2,^4]nona-1(6),8-dien-7-yl]acetamide], for which the EC50 in data set [1] worked out at 0.008 nM. Moreover, the CC50 at 4 days in data set [2] was greater than 20 nM.
In the case of `COCCCn1nc(NS(C)(=O)=O)c2c(Cl)ccc(-n3c([C@H](Cc4cc(F)cc(F)c4)NC(=O)Cn4nc(C(F)F)c5c4C(F)(F)[C@@H]4C[C@H]54)nc4nc(C5CCC(F)(F)CC5)cc(NCCc5ccn(C)n5)c4c3=O)c21` (atropisomer, axis not shown; (P)) [Example 543, N-[(1S)-1-[(3P)-3-[4-chloro-3-methanesulfonamido-1-(3-methoxypropyl)-1H-indazol-7-yl]-7-(4,4-difluorocyclohexyl)-5-{[2-(1-methyl-1H-pyrazol-3-yl)ethyl]amino}-4-oxo-3H,4H-pyrido[2,3-d]pyrimidin-2-yl]-2-(3,5-difluorophenyl)ethyl]-2-[(2S,4R)-9-(difluoromethyl)-5,5-difluoro-7,8-diazatricyclo[4.3.0.0^2,^4]nona-1(6),8-dien-7-yl]acetamide], the EC50 in data set [1] came out at 0.014 nM. Moreover, the CC50 at 4 days in data set [2] (setting [3]) was greater than 20 nM.

As a reminder, the EC50 is the midpoint of the concentration-response curve. Usually CC50 stands for the concentration giving 50% cytotoxicity.
